{"source": "patent US5563037A", "about": "“Homogeneous method for assay of double-stranded nucleic acids using fluorescent dyes and kit useful therein” (Johnson & Johnson Clinical Diagnostics, Inc., priority 1995, dated 1996)", "key": {"HIV-I DNA [1]": {"test_system": "HIV-I DNA", "test": "Example 1: PCR amplification of HIV-I DNA with YO-PRO-1 dye, fluorescence vs. PCR cycles", "type": "biochemical", "from_the_text": "The primers used in Examples 1 and 2 had the following sequences which are complementary to the gag region of HIV-I DNA:\nHIV-I target DNA was obtained from HUT78/HIV AAV cells obtained from Bernie Poiesz of Syracuse University. Each cell contained about 1 HIV-I copy.\nThe final PCR reaction mixture contained the primers SEQ ID NO:1 and SEQ ID NO:2 (0.4 μmolar of each), magnesium chloride (10 mmolar), each of dATP, dCTP, dGTP and dTTP (1.5 mmolar of each), tris(hydroxymethyl)aminomethane buffer (10 mmolar, pH 8), ethylenediaminetetraacetic acid (0.1 mmolar), potassium chloride (50 mmolar), DNA polymerase (160 units/ml) and Kodak Ultrapure Human DNA (0.22 μg/μl), glycerol (7.5%). […]\nAll reagents, except the DNA polymerase, were mixed with the buffer solution noted above. […] The fluorescence of the contents of that tube was then measured following dilution (100 μl of reaction mixture with 3900 μl of dye solution at a concentration of […], giving a final fluid volume of 4 ml in the fluorimeter cuvette) on a commercially available Perkin-Elmer LS-5B spectrofluorimeter (excitation at 491 nm, emission at 509 nm).\nThe results of these measurements are shown in the FIGURE which is a plot of fluorescence intensity vs. the number of PCR cycles. […]"}, "HIV-I DNA [2]": {"test_system": "HIV-I DNA", "test": "Example 2: fluorescence of amplification products", "type": "biochemical", "protocol": "The method of this invention was compared to an amplification and detection method outside the scope of this invention, which was carried out using YOYO-1 (1 μmolar final concentration), a tetravalent fluorescent dye, in the buffered solution described above. This dye has the following structure: [drawing 4]\nThe PCR reaction mixture of Example 1 (except the DNA polymerase) was made to a volume of 5472 μl. The resulting mixture was aliquoted into tubes A, B and C (1824 μl each) representing Samples A, B and C, respectively.\nThe sample in Tube A was diluted with buffer (220 μl) and subjected to amplification without any fluorescence dye present. The dye was added at the end of amplification for quantitative detection of the resulting products.\nIn addition to the PCR reagents, the sample in Tube B contained YOYO-1 fluorescent dye (0.1 μmolar) which had been added prior to amplification (220 μl of a 10 μmolar solution).\nThe sample in Tube C also contained YO-PRO-1 fluorescent dye (0.1 μmolar) which had been added prior to amplification (220 μl of a 10 μmolar solution).\nThe DNA polymerase (88 μl) and target HIV-I DNA target nucleic acid (220 μl) were then added to each tube, and the contents of the each of the three tubes were used to fill the PCR reagent compartment of eight pouches.\nAmplification was carried out using the same procedures as in Example 1. […]\nThe results of amplification were detected in three ways: (1) color dye scores visually evaluated as 0 (no signal) to 10 (highest signal density), (2) ethidium bromide stained electrophoretic gels, and (3) fluorescence measured on a commercially available Perkin Elmer fluorimeter.\nThree replicate assays of each sample (A, B and C) were carried out using each detection means. The average result for each detection means was as follows:\nFluorescent signal was generated using a Perkin-Elmer LS-5B fluorimeter, at the following wavelengths for both dyes:\nEach amplification product mixture was diluted 100× into a solution of each dye (1 μmolar final concentration). Background signals were obtained from a mixture of amplification reagent mixture and each dye."}}, "note": "Where “and” joins values, the source holds several entries; their conditions need not be identical. Identical values can stand only once."}
{"smiles": "C[n+]1c(C=C2C=CN(CCC[N+](C)(C)C)c3ccccc32)oc2ccccc21", "note": "[Compound E]", "values": [{"measurement": "fluorescence after PCR", "setting": "HIV-I DNA [1]; after 45 PCR cycles, excitation 491 nm, emission 509 nm", "value": "about 20 fluorescent units"}, {"measurement": "effect of dye on PCR", "setting": "HIV-I DNA [1]; dye present throughout entire amplification, 1 μmolar", "value": "did not adversely affect PCR"}, {"measurement": "Fluorescence, dye added after amplification (Sample A)", "setting": "HIV-I DNA [2]; Sample A, dye added after amplification, replicates, 491/509 nm, listed as YO-PRO-1", "value": "3.6 Fluorescent Units and 3.7 Fluorescent Units and 3.4 Fluorescent Units and 3.0 Fluorescent Units"}, {"measurement": "Background fluorescence", "setting": "HIV-I DNA [2]; amplification reagent mixture and dye, excitation 491 nm, emission 509 nm", "value": 0.03, "unit": "Fluorescent Units"}, {"measurement": "effect of dye on amplification / overall signal", "setting": "HIV-I DNA [2]; comparison of the two dyes (fluorescence)", "value": "lower overall signal"}, {"measurement": "Fluorescence, dye present during amplification (Samples B, C)", "setting": "HIV-I DNA [2]; dye added prior to amplification, replicates, 491/509 nm, listed as YO-PRO-1", "value": "3.7 Fluorescent Units and 3.5 Fluorescent Units and 3.6 Fluorescent Units and 3.2 Fluorescent Units and 2.8 Fluorescent Units"}, {"measurement": "signal and use of dye during amplification", "setting": "HIV-I DNA [2]; dye included in reagent mixture during amplification", "value": "can be included in the reagent mixture during amplification"}]}
